Data from patent publication US10738056B2 (Aduro BioTech, Inc., priority 2017, dated 2020).

Target: Human cGAS amino acids 155-522 (Homo sapiens (Human), UniProt Q8N884)
Test: cGAS biochemical activity assay (ATP remaining, Kinase-Glo Max luminescence)
Settings: human cGAS 155-522, ATP remaining (Kinase-Glo Max); read-out: cGAS IC50

Human cGAS amino acids 155-522, sequence (Q8N884 157-522): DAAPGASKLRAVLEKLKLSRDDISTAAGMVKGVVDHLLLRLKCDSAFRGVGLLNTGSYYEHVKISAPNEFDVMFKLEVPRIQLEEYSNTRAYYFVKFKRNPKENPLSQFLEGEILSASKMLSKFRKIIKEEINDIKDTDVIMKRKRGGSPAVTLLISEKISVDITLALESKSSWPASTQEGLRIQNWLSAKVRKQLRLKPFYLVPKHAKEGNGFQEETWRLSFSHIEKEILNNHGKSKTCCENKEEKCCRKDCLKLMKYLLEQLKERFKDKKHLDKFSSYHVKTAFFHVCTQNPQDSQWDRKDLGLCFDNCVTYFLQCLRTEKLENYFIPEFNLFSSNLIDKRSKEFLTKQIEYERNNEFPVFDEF

Row | Compound | IC50 [µM]
1 | Cc1[nH]c2c(-c3ccccc3)c(C(F)(F)F)nn2c(=O)c1-c1nnc(C2CCCNC2)o1 (stereo not shown) [Compound D1036, 5-methyl-3-phenyl-6-(5-(piperidin-3-yl)-1,3,4-oxadiazol-2-yl)-2-(trifluoromethyl)pyrazolo[1,5-a]pyrimidin-7(4H)-one] | 20 to 250
2 | Cc1[nH]c2c(-c3ccccc3)c(C(F)(F)F)nn2c(=O)c1C(=O)Nc1ccccc1NS(C)(=O)=O [Compound A1022, 5-methyl-N-(2-(methylsulfonamido)phenyl)-7-oxo-3-phenyl-2-(trifluoromethyl)-4,7-dihydropyrazolo[1,5-a]pyrimidine-6-carboxamide] | < 20
3 | COCC1CCCCN1c1nnc(-c2c(C)[nH]c3c(-c4ccccc4)c(C(F)(F)F)nn3c2=O)o1 (stereo not shown) [Compound D1060, 6-(5-(2-(methoxymethyl)piperidin-1-yl)-1,3,4-oxadiazol-2-yl)-5-methyl-3-phenyl-2-(trifluoromethyl)pyrazolo[1,5-a]pyrimidin-7(4H)-one] | 20 to 250
4 | Cc1[nH]c2c(-c3ccccc3)c(C(F)(F)F)nn2c(=O)c1CCNC(=O)c1ccccc1 [Compound B1014, N-(2-(5-methyl-7-oxo-3-phenyl-2-(trifluoromethyl)-4,7-dihydropyrazolo[1,5-a]pyrimidin-6-yl)ethyl)benzamide] | 20 to 250
5 | Cc1[nH]c2c(C3CCCC3)c(C(F)(F)F)nn2c(=O)c1Cc1ccccc1 [Compound C1267, 6-benzyl-3-cyclopentyl-5-methyl-2-(trifluoromethyl)pyrazolo[1,5-a]pyrimidin-7(4H)-one] | > 250
6 | COc1cccc2oc(-c3c(C(=O)N[C@@H](C)CO)[nH]c4c(-c5ccccc5)c(C(F)(F)F)nn4c3=O)nc12 [Compound C1196, (S)-N-(1-hydroxypropan-2-yl)-6-(4-methoxybenzo[d]oxazol-2-yl)-7-oxo-3-phenyl-2-(trifluoromethyl)-4,7-dihydropyrazolo[1,5-a]pyrimidine-5-carboxamide] | < 20
7 | Cc1[nH]c2c(-c3ccccc3)c(C(F)(F)F)nn2c(=O)c1C(=O)Nc1ccnnc1 [Compound A1018, 5-methyl-7-oxo-3-phenyl-N-(pyridazin-4-yl)-2-(trifluoromethyl)-4,7-dihydropyrazolo[1,5-a]pyrimidine-6-carboxamide] | 20 to 250
8 | COc1cccc2oc(-c3c(C)[nH]c4c(-c5ccccc5)c(C(C)=O)nn4c3=O)nc12 [Compound C1210, 2-acetyl-6-(4-methoxybenzo[d]oxazol-2-yl)-5-methyl-3-phenylpyrazolo[1,5-a]pyrimidin-7(4H)-one] | < 20
9 | COc1ccncc1NC(=O)c1c(C)[nH]c2c(-c3ccccc3)c(C(F)(F)F)nn2c1=O [Compound A1103, N-(4-methoxypyridin-3-yl)-5-methyl-7-oxo-3-phenyl-2-(trifluoromethyl)-4,7-dihydropyrazolo[1,5-a]pyrimidine-6-carboxamide] | 20 to 250
10 | COCCN(C)C(=O)c1[nH]c2c(-c3ccccc3)c(C(F)(F)F)nn2c(=O)c1-c1nc2c(OC)cccc2o1 [Compound C1179, 6-(4-methoxybenzo[d]oxazol-2-yl)-N-(2-methoxyethyl)-N-methyl-7-oxo-3-phenyl-2-(trifluoromethyl)-4,7-dihydropyrazolo[1,5-a]pyrimidine-5-carboxamide] | 20 to 250
11 | Cc1[nH]c2c(C3CC3)c(C(F)(F)F)nn2c(=O)c1-c1ccccc1 [Compound C1265, 3-cyclopropyl-5-methyl-6-phenyl-2-(trifluoromethyl)pyrazolo[1,5-a]pyrimidin-7(4H)-one] | > 250
12 | Cc1[nH]c2c(-c3ccccc3)c(C(F)(F)F)nn2c(=O)c1C(=O)Nc1ccccc1N1CCCC1 [Compound A1054, 5-methyl-7-oxo-3-phenyl-N-(2-(pyrrolidin-1-yl)phenyl)-2-(trifluoromethyl)-4,7-dihydropyrazolo[1,5-a]pyrimidine-6-carboxamide] | 20 to 250
13 | COc1cccc2oc(-c3c(COCC(N)=O)[nH]c4c(-c5ccccc5)c(C(F)(F)F)nn4c3=O)nc12 [Compound C1198, 2-((6-(4-methoxybenzo[d]oxazol-2-yl)-7-oxo-3-phenyl-2-(trifluoromethyl)-4,7-dihydropyrazolo[1,5-a]pyrimidin-5-yl)methoxy)acetamide] | 20 to 250
14 | COc1ncccc1-c1nnc(-c2c(C)[nH]c3c(-c4ccccc4)c(C(F)(F)F)nn3c2=O)o1 [Compound D1064, 6-(5-(2-methoxypyridin-3-yl)-1,3,4-oxadiazol-2-yl)-5-methyl-3-phenyl-2-(trifluoromethyl)pyrazolo[1,5-a]pyrimidin-7(4H)-one] | > 250
15 | Cc1[nH]c2c(-c3ccccc3)c(C(F)(F)F)nn2c(=O)c1-c1n[nH]c(=O)o1 [Compound C1247, 5-(5-methyl-7-oxo-3-phenyl-2-(trifluoromethyl)-4,7-dihydropyrazolo[1,5-a]pyrimidin-6-yl)-1,3,4-oxadiazol-2(3H)-one] | < 20
16 | Cc1[nH]c2c(-c3ccccc3)c(C#N)nn2c(=O)c1-c1nnc(C2CCCCC2)o1 [Compound D1089, 6-(5-cyclohexyl-1,3,4-oxadiazol-2-yl)-5-methyl-7-oxo-3-phenyl-4,7-dihydropyrazolo[1,5-a]pyrimidine-2-carbonitrile] | < 20
17 | COc1cccc2oc(-c3c(OCCN(C)C)[nH]c4c(-c5ccccc5)c(C(F)(F)F)nn4c3=O)nc12 [Compound C1067, 5-(2-(dimethylamino)ethoxy)-6-(4-methoxybenzo[d]oxazol-2-yl)-3-phenyl-2-(trifluoromethyl)pyrazolo[1,5-a]pyrimidin-7(4H)-one] | > 250
18 | COc1cccc2oc(-c3c(C)[nH]c4c(-c5ccccc5)c(C(=O)O)nn4c3=O)nc12 [Compound C1043, 6-(4-methoxybenzo[d]oxazol-2-yl)-5-methyl-7-oxo-3-phenyl-4,7-dihydropyrazolo[1,5-a]pyrimidine-2-carboxylic acid] | > 250
19 | Cc1[nH]c2c(-c3ccccc3)c(C(F)(F)F)nn2c(=O)c1-c1nnc(-c2ccc([N+](=O)[O-])cc2)o1 [Compound D1061, 5-methyl-6-(5-(4-nitrophenyl)-1,3,4-oxadiazol-2-yl)-3-phenyl-2-(trifluoromethyl)pyrazolo[1,5-a]pyrimidin-7(4H)-one] | 20 to 250
20 | Cc1[nH]c2c(-c3ccccc3)c(C(F)(F)F)nn2c(=O)c1-c1nnc(N2CCCC(O)C2)o1 (stereo not shown) [Compound D1087, 6-(5-(3-hydroxypiperidin-1-yl)-1,3,4-oxadiazol-2-yl)-5-methyl-3-phenyl-2-(trifluoromethyl)pyrazolo[1,5-a]pyrimidin-7(4H)-one] | 20 to 250
21 | COc1cccc2oc(-c3c(C(=O)N4CCC[C@@H]4CO)[nH]c4c(-c5ccccc5)c(C(F)(F)F)nn4c3=O)nc12 [Compound C1207, (R)-5-(2-(hydroxymethyl)pyrrolidine-1-carbonyl)-6-(4-methoxybenzo[d]oxazol-2-yl)-3-phenyl-2-(trifluoromethyl)pyrazolo[1,5-a]pyrimidin-7(4H)-one] | 20 to 250
22 | COc1ccccc1-c1c(C(F)(F)F)nn2c(=O)c(-c3nc4c(OC)cccc4o3)c(C)[nH]c12 [Compound C1086, 6-(4-methoxybenzo[d]oxazol-2-yl)-3-(2-methoxyphenyl)-5-methyl-2-(trifluoromethyl)pyrazolo[1,5-a]pyrimidin-7(4H)-one] | > 250
